Measurements reported in patent publication US6737383B1, “Herbicidal oxadiazolidines” (priority 1999, dated 2004).

Tests used:
pigweed = test: Test B pre/postemergence pigweed; type: in vivo, Amaranthus retroflexus
How it was run: (§1)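 Herbicidal effect was estimated by eye on a ten-point control scale after plants spent twelve to sixteen days in a greenhouse following soil or foliar treatment. Foliar sprays targeted plants at one to four leaves; all doses were formulated in a non-phytotoxic solvent with surfactant.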

morningglory = test: Test B pre/postemergence morningglory; type: in vivo, Ipomoea hederacea
How it was run: as §1

bamyardgrass = test: Test B flood test barnyardgrass; type: in vivo, Echinochloa crus-galli
How it was run: (§2)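 Plants were grown to the 2-leaf stage before treatment with test chemical, then held in a greenhouse for twelve to sixteen days. Injury was visually rated against untreated controls on a 0–10 scale, where 0 is no effect and 10 is complete control.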

duck salad = test: Test B flood test duck salad; type: in vivo, Heteranthera limosa
How it was run: as §2

velvetleaf = test: Test B pre/postemergence velvetleaf; type: in vivo, Abutilon theophrasti
How it was run: as §1

purple nutsedge = test: Test B pre/postemergence purple nutsedge; type: in vivo, Cyperus rotundus
How it was run: as §1

giant foxtail = test: Test B pre/postemergence giant foxtail; type: in vivo, Setaria faberii
How it was run: as §1

corn = test: Test B pre/postemergence corn; type: in vivo, Zea mays
How it was run: as §1

rape = test: Test B pre/postemergence rape; type: in vivo, Brassica napus
How it was run: as §1

cocklebur = test: Test B pre/postemergence cocklebur; type: in vivo, Xanthium strumarium
How it was run: as §1

rice = test: Test B flood test rice; type: in vivo, Oryza sativa
How it was run: as §2

wild oat = test: Test B pre/postemergence wild oat; type: in vivo, Avena fatua
How it was run: as §1

crabgrass = test: Test B pre/postemergence crabgrass; type: in vivo, Digitaria sanguinalis
How it was run: as §1

sugar beet = test: Test B pre/postemergence sugar beet; type: in vivo, Beta vulgaris
How it was run: as §1

soybean = test: Test B pre/postemergence soybean; type: in vivo, Glycine max
How it was run: as §1

wheat = test: Test B pre/postemergence wheat; type: in vivo, Triticum aestivum
How it was run: as §1

[1] = Postemergence, Rate 125 g/ha, scale of 0 to 10 where 0 is no effect and 10 is complete control
[2] = Preemergence, Rate 62 g/ha, scale 0 to 10 (0 no effect, 10 complete control)
[3] = Preemergence, Rate 125 g/ha, 0 is no effect, 10 is complete control
[4] = Preemergence, Rate 250 g/ha, scale 0 to 10, 0 is no effect, 10 is complete control
[5] = Preemergence, Rate 500 g/ha, scale 0 to 10 (0 no effect, 10 complete control)
[6] = Rate 62 g/ha, Postemergence, scale of 0 to 10 where 0 is no effect and 10 is complete control
[7] = Rate 250 g/ha, Postemergence, scale 0 to 10, 0 is no effect, 10 is complete control
[8] = Rate 500 g/ha, Postemergence, scale 0 to 10
[9] = Postemergence (flood test species), Rate 125 g/ha, scale of 0 to 10 where 0 is no effect and 10 is complete control
[10] = Rate 62 g/ha, Postemergence section, flood test species, scale of 0 to 10 where 0 is no effect and 10 is complete control
[11] = Rate 250 g/ha, Postemergence (flood test), scale 0 to 10, 0 is no effect, 10 is complete control
[12] = Rate 500 g/ha, listed under Postemergence (flood test species), scale 0 to 10

Cc1ccccc1Cn1c(=O)on(C(=O)N(c2ccc(Cl)cc2)C(C)C)c1=O [Compound 136]
1: Cocklebur plant response rating (cocklebur; [6]) | Crabgrass plant response rating (crabgrass; [6])
6: Plant response rating, Redroot pigweed (pigweed; [7]) | Redroot pigweed plant response rating (pigweed; [8]) | Morningglory plant response rating (morningglory; [6])
10: Redroot pigweed plant response rating (pigweed; [4]) | Redroot pigweed plant response rating (pigweed; [5]) | Morningglory plant response rating (morningglory; [1]) | Plant response rating, Morningglory (morningglory; [7]) | Morningglory plant response rating (morningglory; [8]) | Giant foxtail plant response rating (giant foxtail; [4]) | Giant foxtail plant response rating (giant foxtail; [5])
9: Crabgrass plant response rating (crabgrass; [8]) | Sugarbeets plant response rating (sugar beet; [5])
7: Redroot pigweed plant response rating (pigweed; [2]) | Plant response rating, Giant foxtail (giant foxtail; [7]) | Giant foxtail plant response rating (giant foxtail; [8]) | Crabgrass plant response rating (crabgrass; [4]) | Plant response rating, Sugarbeets (sugar beet; [7])
0: Morningglory plant response rating (morningglory; [2]) | Morningglory plant response rating (0 to 10 scale) (morningglory; [3]) | Morningglory plant response rating (morningglory; [4]) | Morningglory plant response rating (morningglory; [5]) | Barnyardgrass plant response rating (bamyardgrass; [9]) | Barnyardgrass plant response rating (bamyardgrass; [10]) | Plant response rating, Barnyardgrass (bamyardgrass; [11]) | Barnyardgrass plant response rating (bamyardgrass; Rate 500 g/ha, listed under Postemergence (flood test species), scale 0 to 10, 0 no effect, 10 complete control) | Ducksalad plant response rating (duck salad; [9]) | Ducksalad plant response rating (duck salad; [10]) | Plant response rating, Ducksalad (duck salad; [11]) | Ducksalad plant response rating (duck salad; [12]) | Velvetleaf plant response rating (velvetleaf; [1]) | Velvetleaf plant response rating (velvetleaf; [2]) | Velvetleaf plant response rating (0 to 10 scale) (velvetleaf; [3]) | Velvetleaf plant response rating (velvetleaf; [4]) | Velvetleaf plant response rating (velvetleaf; [6]) | Plant response rating, Velvetleaf (velvetleaf; [7]) | Nutsedge plant response rating (purple nutsedge; [1]) | Nutsedge plant response rating (purple nutsedge; [2]) | Nutsedge plant response rating (0 to 10 scale) (purple nutsedge; [3]) | Nutsedge plant response rating (purple nutsedge; [4]) | Nutsedge plant response rating (purple nutsedge; [6]) | Plant response rating, Nutsedge (purple nutsedge; [7]) | Nutsedge plant response rating (purple nutsedge; [8]) | Giant foxtail plant response rating (giant foxtail; [2]) | Giant foxtail plant response rating (giant foxtail; [6]) | Corn plant response rating (corn; [1]) | Corn plant response rating (corn; [2]) | Corn plant response rating (0 to 10 scale) (corn; [3]) | Corn plant response rating (corn; [4]) | Corn plant response rating (corn; [5]) | Corn plant response rating (corn; [6]) | Plant response rating, Corn (corn; [7]) | Corn plant response rating (corn; [8]) | Rape plant response rating (rape; [1]) | Rape plant response rating (rape; [2]) | Rape plant response rating (0 to 10 scale) (rape; [3]) | Rape plant response rating (rape; [4]) | Rape plant response rating (rape; [5]) | Rape plant response rating (rape; [6]) | Cocklebur plant response rating (cocklebur; [2]) | Cocklebur plant response rating (0 to 10 scale) (cocklebur; [3]) | Cocklebur plant response rating (cocklebur; [4]) | Rice plant response rating (rice; [9]) | Rice plant response rating (rice; [10]) | Plant response rating, Rice (rice; [11]) | Rice plant response rating (rice; [12]) | Wild oats plant response rating (wild oat; [1]) | Wild oats plant response rating (wild oat; [2]) | Wild oats plant response rating (0 to 10 scale) (wild oat; [3]) | Wild oats plant response rating (wild oat; [4]) | Wild oats plant response rating (wild oat; [6]) | Plant response rating, Wild oats (wild oat; [7]) | Crabgrass plant response rating (crabgrass; [2]) | Soybean plant response rating (soybean; [2]) | Soybean plant response rating (0 to 10 scale) (soybean; [3]) | Soybean plant response rating (soybean; [4]) | Soybean plant response rating (soybean; [5]) | Wheat plant response rating (wheat; [1]) | Wheat plant response rating (wheat; [2]) | Wheat plant response rating (0 to 10 scale) (wheat; [3]) | Wheat plant response rating (wheat; [4]) | Wheat plant response rating (wheat; [5]) | Wheat plant response rating (wheat; [6]) | Plant response rating, Wheat (wheat; [7]) | Wheat plant response rating (wheat; [8])
5: Soybean plant response rating (soybean; [8])
2: Velvetleaf plant response rating (velvetleaf; [8]) | Plant response rating, Rape (rape; [7]) | Cocklebur plant response rating (cocklebur; [1]) | Plant response rating, Cocklebur (cocklebur; [7]) | Crabgrass plant response rating (crabgrass; [1])
3: Redroot pigweed plant response rating (pigweed; [6]) | Wild oats plant response rating (wild oat; [5]) | Wild oats plant response rating (wild oat; [8]) | Sugarbeets plant response rating (sugar beet; [6]) | Soybean plant response rating (soybean; [6])
8: Redroot pigweed plant response rating (0 to 10 scale) (pigweed; [3]) | Crabgrass plant response rating (crabgrass; [5]) | Plant response rating, Crabgrass (crabgrass; [7]) | Sugarbeets plant response rating (sugar beet; [4]) | Sugarbeets plant response rating (sugar beet; [8])
4: Redroot pigweed plant response rating (pigweed; [1]) | Velvetleaf plant response rating (velvetleaf; [5]) | Giant foxtail plant response rating (giant foxtail; [1]) | Giant foxtail plant response rating (0 to 10 scale) (giant foxtail; [3]) | Rape plant response rating (rape; [8]) | Cocklebur plant response rating (cocklebur; [8]) | Crabgrass plant response rating (0 to 10 scale) (crabgrass; [3]) | Sugarbeets plant response rating (sugar beet; [1]) | Sugarbeets plant response rating (sugar beet; [2]) | Sugarbeets plant response rating (0 to 10 scale) (sugar beet; [3]) | Soybean plant response rating (soybean; [1]) | Plant response rating, Soybean (soybean; [7])
